Drawing on article PMC2229492 (The Journal of General Physiology, 2000), this text covers EC50 for one compound.

Assay [1] deals with T1, rat olfactory CNG (OLF) channel (Rattus norvegicus, UniProt Q00195).
T1 sequence (Q00195 1-664): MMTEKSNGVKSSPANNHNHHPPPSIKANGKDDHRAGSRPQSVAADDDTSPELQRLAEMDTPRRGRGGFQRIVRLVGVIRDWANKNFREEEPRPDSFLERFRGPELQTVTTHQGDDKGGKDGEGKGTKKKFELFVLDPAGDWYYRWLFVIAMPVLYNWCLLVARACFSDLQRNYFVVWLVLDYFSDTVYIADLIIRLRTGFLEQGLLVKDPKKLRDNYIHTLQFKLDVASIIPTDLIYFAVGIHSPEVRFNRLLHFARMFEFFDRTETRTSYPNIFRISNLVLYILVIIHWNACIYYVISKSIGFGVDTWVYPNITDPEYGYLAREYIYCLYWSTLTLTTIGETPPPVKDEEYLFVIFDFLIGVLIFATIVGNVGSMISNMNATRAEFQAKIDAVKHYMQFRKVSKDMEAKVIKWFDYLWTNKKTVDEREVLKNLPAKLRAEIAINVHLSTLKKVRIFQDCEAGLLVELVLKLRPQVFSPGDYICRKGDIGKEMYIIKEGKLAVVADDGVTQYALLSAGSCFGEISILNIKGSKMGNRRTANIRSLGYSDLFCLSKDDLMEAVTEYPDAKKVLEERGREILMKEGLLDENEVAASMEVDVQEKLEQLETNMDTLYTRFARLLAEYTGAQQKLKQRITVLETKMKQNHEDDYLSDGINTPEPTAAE
The assay is described as follows: inside-out patch recording, cGMP dose-response. The assay is classed as cell-based.

Assay [2] addresses T2, rat olfactory CNG (OLF) channel (Rattus norvegicus, UniProt Q00195, W332Y).
T2 sequence (Q00195 1-664 W332Y): T1 sequence (Q00195 1-664) with W332Y
Description: inside-out patch recording, cGMP dose-response. The assay is classed as cell-based.

Positions count from the first letter of the chain named.

On to `Nc1nc2c(ncn2[C@@H]2O[C@@H]3COP(=O)(O)O[C@H]3[C@H]2O)c(=O)[nH]1` [cGMP], for which the EC50 in assay [1] is 2.47 µM; in assay [2], 17.7 µM.
